In ChEMBL document CHEMBL5620341, “CSF1R inhibitors are emerging immunotherapeutic drugs for cancer treatment” (Eur J Med Chem, 2023):
pIC50, pKd: −log10 of the molar value. In brackets after ≈: the same amount, converted by molar mass. One block for each molecule: values may come before it.

Key:
[1] = target: T1, Macrophage colony-stimulating factor 1 receptor (Mus musculus, UniProt P09581); test: Inhibition of CSF1R in mouse RAW264.7 cells assessed as reduction in AKT phosphorylation measured after 4 hrs by Western blot analysis; format: cell-based
T1 sequence (P09581 whole entry): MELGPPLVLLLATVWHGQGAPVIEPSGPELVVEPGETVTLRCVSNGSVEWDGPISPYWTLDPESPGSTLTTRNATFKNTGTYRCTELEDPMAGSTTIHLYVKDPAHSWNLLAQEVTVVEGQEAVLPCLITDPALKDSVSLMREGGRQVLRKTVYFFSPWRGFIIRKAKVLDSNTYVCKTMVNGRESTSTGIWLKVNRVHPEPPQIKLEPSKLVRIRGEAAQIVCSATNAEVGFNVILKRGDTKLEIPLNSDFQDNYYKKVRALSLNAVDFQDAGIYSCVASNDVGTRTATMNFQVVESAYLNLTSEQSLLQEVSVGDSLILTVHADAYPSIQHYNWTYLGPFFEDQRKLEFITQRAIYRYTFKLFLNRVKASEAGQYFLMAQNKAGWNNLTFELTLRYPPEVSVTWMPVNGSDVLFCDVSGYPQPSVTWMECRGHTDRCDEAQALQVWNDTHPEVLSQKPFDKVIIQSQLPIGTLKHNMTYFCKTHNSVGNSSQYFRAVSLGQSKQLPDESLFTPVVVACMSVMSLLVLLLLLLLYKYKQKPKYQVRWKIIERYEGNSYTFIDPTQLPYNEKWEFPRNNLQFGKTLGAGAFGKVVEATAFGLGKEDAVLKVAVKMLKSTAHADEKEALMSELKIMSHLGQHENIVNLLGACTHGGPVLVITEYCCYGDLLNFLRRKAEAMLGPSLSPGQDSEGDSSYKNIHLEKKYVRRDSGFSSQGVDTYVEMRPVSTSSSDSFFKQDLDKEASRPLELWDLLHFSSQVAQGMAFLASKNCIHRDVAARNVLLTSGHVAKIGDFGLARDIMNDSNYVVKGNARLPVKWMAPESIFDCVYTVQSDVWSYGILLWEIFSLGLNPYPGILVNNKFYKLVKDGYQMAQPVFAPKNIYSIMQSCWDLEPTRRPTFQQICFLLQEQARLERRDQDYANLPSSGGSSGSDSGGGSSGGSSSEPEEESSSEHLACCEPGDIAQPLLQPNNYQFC

HUVEC [2] = test: Antiproliferative activity against VEGF stimulated HUVEC cells assessed as reduction in cell viability incubated for 72 hrs by MTT assay; details: Homo sapiens
[3] = target: T2, Vascular endothelial growth factor receptor 2 (Homo sapiens, UniProt P35968); test: Inhibition of VEGFR2 (unknown origin)
T2 sequence (P35968 whole entry): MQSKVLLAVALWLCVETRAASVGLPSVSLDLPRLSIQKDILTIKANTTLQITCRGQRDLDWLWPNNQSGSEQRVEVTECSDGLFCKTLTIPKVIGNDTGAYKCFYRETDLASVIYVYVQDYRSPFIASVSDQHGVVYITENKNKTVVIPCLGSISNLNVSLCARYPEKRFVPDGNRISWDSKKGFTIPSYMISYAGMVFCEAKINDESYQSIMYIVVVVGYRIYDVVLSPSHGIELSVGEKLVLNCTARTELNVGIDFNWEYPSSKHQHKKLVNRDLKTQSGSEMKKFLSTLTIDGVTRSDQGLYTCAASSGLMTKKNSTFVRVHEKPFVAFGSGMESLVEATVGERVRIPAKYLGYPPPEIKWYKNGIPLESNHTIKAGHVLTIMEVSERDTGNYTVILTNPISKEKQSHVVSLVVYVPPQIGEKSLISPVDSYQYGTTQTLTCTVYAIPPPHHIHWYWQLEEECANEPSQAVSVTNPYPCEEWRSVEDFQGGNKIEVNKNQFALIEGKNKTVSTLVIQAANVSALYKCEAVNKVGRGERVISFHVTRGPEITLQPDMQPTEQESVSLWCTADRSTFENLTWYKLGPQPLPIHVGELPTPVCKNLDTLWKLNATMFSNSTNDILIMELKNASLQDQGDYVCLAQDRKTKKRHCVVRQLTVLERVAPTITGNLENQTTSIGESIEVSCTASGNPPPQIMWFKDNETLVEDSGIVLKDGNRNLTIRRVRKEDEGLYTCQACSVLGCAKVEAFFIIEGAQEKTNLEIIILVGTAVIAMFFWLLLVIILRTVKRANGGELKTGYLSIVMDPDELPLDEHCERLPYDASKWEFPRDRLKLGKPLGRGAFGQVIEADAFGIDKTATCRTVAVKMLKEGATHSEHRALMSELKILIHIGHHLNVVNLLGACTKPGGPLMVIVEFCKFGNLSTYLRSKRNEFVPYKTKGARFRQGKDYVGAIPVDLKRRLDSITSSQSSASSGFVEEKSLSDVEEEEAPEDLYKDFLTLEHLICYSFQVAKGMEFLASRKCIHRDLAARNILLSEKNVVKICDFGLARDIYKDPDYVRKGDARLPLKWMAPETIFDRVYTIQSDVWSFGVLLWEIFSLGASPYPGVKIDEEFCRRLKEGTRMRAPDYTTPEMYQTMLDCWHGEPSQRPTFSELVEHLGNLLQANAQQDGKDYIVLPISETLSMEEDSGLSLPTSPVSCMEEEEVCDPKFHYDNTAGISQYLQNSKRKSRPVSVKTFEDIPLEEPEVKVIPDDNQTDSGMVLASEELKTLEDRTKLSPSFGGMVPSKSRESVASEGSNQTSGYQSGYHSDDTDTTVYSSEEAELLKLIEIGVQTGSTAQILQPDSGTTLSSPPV

[4] = target: T3, Tyrosine-protein kinase Mer (Homo sapiens, UniProt Q12866); test: Inhibition of human MERTK by discoverX kinome scan assay
T3 sequence (Q12866 whole entry): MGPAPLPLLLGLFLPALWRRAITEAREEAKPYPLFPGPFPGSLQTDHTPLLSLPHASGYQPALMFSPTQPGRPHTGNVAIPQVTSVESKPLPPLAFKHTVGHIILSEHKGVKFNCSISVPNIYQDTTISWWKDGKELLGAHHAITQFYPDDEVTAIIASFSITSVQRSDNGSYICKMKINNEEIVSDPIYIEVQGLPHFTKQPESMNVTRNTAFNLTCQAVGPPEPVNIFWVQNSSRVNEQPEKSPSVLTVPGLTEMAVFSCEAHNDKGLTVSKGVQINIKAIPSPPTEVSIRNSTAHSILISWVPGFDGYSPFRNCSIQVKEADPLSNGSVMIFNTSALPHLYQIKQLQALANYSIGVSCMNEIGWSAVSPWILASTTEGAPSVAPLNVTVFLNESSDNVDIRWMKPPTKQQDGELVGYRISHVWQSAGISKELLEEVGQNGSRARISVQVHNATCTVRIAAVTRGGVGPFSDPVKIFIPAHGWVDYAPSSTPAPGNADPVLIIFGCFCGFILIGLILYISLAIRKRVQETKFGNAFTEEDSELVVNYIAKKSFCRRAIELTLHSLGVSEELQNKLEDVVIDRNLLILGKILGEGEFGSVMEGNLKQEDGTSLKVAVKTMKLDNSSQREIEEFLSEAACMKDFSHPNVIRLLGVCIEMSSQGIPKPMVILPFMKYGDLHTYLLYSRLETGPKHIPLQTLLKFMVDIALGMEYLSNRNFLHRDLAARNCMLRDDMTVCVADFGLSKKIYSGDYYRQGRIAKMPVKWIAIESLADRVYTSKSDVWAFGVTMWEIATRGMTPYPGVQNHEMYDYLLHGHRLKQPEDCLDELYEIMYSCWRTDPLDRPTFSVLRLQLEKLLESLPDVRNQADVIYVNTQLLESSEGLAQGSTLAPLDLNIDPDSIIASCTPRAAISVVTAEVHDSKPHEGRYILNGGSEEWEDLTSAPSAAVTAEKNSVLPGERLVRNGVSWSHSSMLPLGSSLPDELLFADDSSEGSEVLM

[5] = target: Vascular endothelial growth factor receptor 1 (Homo sapiens, UniProt P17948); test: Inhibition of VEGFR1 (unknown origin)
Sequence of Vascular endothelial growth factor receptor 1 (P17948 whole entry): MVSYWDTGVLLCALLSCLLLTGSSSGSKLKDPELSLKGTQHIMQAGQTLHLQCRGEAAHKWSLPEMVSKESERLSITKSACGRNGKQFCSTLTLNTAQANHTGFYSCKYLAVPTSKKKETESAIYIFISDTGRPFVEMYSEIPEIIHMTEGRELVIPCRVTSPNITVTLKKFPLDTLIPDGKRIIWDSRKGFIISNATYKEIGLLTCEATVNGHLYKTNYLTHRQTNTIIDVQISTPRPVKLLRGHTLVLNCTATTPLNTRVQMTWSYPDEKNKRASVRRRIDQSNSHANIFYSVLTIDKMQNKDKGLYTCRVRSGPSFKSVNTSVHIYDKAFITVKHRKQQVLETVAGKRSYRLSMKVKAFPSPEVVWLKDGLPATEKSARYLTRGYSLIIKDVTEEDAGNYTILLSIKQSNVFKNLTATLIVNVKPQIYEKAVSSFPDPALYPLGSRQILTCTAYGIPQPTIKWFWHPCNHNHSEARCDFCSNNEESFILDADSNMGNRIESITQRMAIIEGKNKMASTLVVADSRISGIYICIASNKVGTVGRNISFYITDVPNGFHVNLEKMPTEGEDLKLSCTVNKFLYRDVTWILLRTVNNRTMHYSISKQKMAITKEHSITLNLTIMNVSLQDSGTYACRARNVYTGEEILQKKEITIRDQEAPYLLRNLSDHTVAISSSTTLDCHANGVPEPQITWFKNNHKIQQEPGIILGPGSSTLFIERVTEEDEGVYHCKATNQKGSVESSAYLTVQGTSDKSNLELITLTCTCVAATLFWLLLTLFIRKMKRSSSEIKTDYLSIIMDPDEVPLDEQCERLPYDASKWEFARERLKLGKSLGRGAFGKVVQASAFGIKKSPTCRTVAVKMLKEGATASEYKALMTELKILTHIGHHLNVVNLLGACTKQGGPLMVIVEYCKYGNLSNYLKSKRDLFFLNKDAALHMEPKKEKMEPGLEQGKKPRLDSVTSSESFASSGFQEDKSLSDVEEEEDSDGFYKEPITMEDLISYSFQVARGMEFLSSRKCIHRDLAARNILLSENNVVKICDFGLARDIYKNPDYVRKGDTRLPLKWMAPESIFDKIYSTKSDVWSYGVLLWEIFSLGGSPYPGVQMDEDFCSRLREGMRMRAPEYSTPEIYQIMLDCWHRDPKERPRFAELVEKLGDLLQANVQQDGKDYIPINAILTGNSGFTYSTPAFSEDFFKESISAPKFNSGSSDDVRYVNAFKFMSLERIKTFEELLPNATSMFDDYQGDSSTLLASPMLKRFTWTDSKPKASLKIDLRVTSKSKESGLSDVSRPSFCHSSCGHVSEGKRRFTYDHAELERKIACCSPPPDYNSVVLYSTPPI

HUVEC [6] = test: Antiproliferative activity against FGF stimulated HUVEC cells assessed as reduction in cell viability incubated for 72 hrs by MTT assay; details: Homo sapiens
[7] = Half life in Sprague-Dawley rat at 10 mg/kg, po or 1 mg/kg, iv by LC-MS/MS analysis; format: ADME, organism-based; details: in vivo
[8] = Oral bioavailability in Sprague-Dawley rat at 10 mg/kg by LC-MS/MS analysis; format: ADME, organism-based; details: in vivo
[9] = Solubility of compound in PBS at pH 7.4; format: physicochemical
[10] = Unbound fraction in mouse plasma; format: ADME, cell-free
[11] = Metabolic stability in mouse liver microsomes assessed as half life; format: ADME, Microsome
[12] = Inhibition of FGFR (unknown origin); design: species or system Homo sapiens
[13] = target: Receptor-type tyrosine-protein kinase FLT3 (Homo sapiens, UniProt P36888, ITD); test: Inhibition of FLT3-ITD mutant phosphorylation in human HEK-293T cells incubated for 2 hrs; format: cell-based
[14] = target: Mast/stem cell growth factor receptor Kit (Homo sapiens, UniProt P10721); test: Inhibition of c-KIT (unknown origin) using TK as substrate incubated for 50 mins in presence of ATP by HTRF method
NFS-60 [15] = test: Growth inhibition of mouse NFS-60 cells; format: functional
[16] = target: T4, Macrophage colony-stimulating factor 1 receptor (Homo sapiens, UniProt P07333); test: Binding affinity to CSF1R (unknown origin) assessed as dissociation constant
T4 sequence (P07333 whole entry): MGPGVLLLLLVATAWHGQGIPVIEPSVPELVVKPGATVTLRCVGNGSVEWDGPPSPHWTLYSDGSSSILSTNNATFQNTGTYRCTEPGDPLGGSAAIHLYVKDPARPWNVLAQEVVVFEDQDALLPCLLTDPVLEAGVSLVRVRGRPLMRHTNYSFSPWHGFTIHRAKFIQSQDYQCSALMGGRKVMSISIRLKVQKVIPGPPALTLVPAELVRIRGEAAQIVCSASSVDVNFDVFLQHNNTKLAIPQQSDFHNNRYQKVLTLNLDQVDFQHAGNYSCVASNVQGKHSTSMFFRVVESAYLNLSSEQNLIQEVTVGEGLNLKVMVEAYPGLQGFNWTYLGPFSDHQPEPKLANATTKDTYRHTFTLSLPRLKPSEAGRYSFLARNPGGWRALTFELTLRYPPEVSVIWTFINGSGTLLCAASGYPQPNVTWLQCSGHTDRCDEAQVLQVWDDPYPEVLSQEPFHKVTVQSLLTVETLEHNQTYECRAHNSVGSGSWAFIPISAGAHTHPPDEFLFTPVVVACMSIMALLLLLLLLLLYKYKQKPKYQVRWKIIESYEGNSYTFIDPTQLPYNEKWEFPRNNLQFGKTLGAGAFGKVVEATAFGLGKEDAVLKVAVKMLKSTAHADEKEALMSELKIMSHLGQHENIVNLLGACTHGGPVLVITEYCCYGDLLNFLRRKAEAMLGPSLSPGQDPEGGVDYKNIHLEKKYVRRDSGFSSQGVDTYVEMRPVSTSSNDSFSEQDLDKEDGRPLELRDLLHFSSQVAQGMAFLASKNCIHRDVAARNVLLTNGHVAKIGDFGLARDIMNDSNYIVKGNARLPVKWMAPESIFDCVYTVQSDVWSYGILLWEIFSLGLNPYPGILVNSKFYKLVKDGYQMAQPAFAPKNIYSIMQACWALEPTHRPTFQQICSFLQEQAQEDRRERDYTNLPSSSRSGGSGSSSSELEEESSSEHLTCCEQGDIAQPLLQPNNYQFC

EMT6 = test: Antitumor activity against mouse EMT6 cells allografted in BALB/c mouse assessed as reduction in tumor growth inhibition administered via oral gavage relative to control; format: functional
[17] = Inhibition of human CSF1R-autoinhibited by discoverX kinome scan assay
[18] = target: T4, Macrophage colony-stimulating factor 1 receptor; test: Inhibition of CSF1R (unknown origin) preincubated for 60 mins measured after 1 hr by ADP-Glo assay
[19] = Oral bioavailability in CD-1 mouse at 3 mg/kg; format: ADME, organism-based; details: in vivo
[20] = target: Platelet-derived growth factor receptor beta (Homo sapiens, UniProt P09619); test: Inhibition of PDGFRbeta (unknown origin)
Sequence of Platelet-derived growth factor receptor beta (P09619 whole entry): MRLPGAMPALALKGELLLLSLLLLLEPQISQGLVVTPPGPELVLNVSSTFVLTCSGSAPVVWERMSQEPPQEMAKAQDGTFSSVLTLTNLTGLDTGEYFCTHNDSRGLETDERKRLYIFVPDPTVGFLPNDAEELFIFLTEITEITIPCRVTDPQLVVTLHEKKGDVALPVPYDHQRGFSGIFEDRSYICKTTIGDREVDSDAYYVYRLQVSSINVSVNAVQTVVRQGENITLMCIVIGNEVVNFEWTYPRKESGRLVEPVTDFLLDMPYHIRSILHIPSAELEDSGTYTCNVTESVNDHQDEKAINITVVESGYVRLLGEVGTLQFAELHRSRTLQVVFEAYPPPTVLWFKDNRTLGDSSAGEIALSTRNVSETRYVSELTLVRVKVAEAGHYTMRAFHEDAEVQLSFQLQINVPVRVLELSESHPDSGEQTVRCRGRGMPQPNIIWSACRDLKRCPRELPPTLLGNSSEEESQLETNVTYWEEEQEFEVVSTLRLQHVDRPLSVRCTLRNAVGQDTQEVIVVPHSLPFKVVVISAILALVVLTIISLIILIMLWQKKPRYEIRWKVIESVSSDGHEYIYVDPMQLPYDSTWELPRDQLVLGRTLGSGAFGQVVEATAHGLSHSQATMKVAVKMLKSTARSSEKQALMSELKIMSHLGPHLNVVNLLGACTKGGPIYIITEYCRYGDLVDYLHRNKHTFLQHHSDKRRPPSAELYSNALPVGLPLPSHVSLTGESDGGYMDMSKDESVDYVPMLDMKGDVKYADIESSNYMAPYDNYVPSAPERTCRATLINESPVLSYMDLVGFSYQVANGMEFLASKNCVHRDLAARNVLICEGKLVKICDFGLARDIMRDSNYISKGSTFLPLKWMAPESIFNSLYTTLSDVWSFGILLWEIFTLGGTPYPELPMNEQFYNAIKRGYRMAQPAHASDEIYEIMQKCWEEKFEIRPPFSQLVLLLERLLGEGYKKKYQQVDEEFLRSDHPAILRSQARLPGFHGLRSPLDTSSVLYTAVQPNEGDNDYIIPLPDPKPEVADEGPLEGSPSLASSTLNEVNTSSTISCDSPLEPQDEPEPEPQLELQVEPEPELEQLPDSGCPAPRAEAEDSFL

[21] = target: T2, Vascular endothelial growth factor receptor 2; test: Inhibition of human VEGFR2 in presence of ATP by mobility shift assay
CT26 = test: Antiproliferative activity against mouse CT26 cells assessed as inhibition of cell growth measured after 6 days by MTT assay; format: functional, cell-based; details: CT26, 144 h
MC-38 = test: Antitumor activity against mouse MC38 cells allografted in C57BL/6 mouse assessed as reduction in tumor volume at 5 to 10 mg/kg administered via oral gavage for 21 days relative to control; format: functional; design: scale not given: the % may be the effect or the level left; details: dose 5-10 mg/kg, time 21 day
[22] = target: RAF proto-oncogene serine/threonine-protein kinase (Homo sapiens, UniProt P04049); test: Inhibition of c-RAF (unknown origin)
[23] = target: Tyrosine-protein kinase Lck (Homo sapiens, UniProt P06239); test: Inhibition of LCK (unknown origin)
[24] = target: T2, Vascular endothelial growth factor receptor 2; test: Inhibition of KDR (unknown origin) using peptide as substrate incubated for 90 mins in presence of ATP by HTRF method
[25] = target: Receptor-type tyrosine-protein kinase FLT3 (Homo sapiens, UniProt P36888); test: Binding affinity to human FLT3 assessed as dissociation constant
NFS-60 [26] = test: Cytotoxicity against mouse NFS-60 cells assessed as cell growth inhibition incubated for 72 hrs by Cell titer-glo assay; details: NFS-60, 72 h
[27] = Cytotoxicity against mouse RAW264.7 cells assessed as reduction in cell viability incubated for 48 hrs by MTT assay; format: toxicity, cell-based
NFS-60 [28] = test: Growth inhibition of mouse NFS-60 cells incubated for 72 hrs by Cell titer-glo assay; format: functional
[29] = target: T1, Macrophage colony-stimulating factor 1 receptor; test: Inhibition of CSF1R in mouse BMDM cells; format: cell-based
ID8 = test: Cytotoxicity against mouse ID8 cells; format: functional
[30] = target: T1, Macrophage colony-stimulating factor 1 receptor; test: Inhibition of CSF1R autophosphorylation in mouse RAW264.7 cells measured after 4 hrs by Western blot analysis; format: cell-based

Structure (SMILES): Cc1cc2cc(Oc3ccnc(Nc4cccc(CS(=O)(=O)NCCN(C)C)c4)n3)ccc2[nH]1 [SURUFATINIB]
- pIC50 [1]: 7.10
- pIC50 (HUVEC [2]): > 7.30
- pIC50 [3]: 9.00
- pIC50 [4]: 8.40
- pIC50 [5]: 9.00
- pIC50 (HUVEC [6]): > 7.30

Structure (SMILES): COc1ccc(N(C(=O)Nc2c(C)cccc2C)c2cc(Nc3ccc(N4CCN(C)CC4)cc3)ncn2)c(OC)c1
- half-life [11]: > 2 h

Structure (SMILES): Cc1cccc(Cn2nc(C)c3c(NC(=O)c4csc5c(N)ncnc45)cccc32)n1
- GI50 (NFS-60 [15]): 80 nM

Structure (SMILES): Cc1nc(-c2cnc(NC(C)C)n(C)c2=O)ccc1Oc1ccnc(-c2cnn(C)c2)c1 [VIMSELTINIB]
- Activity (MC-38): 67%

Structure (SMILES): CN1CCN(c2ccc(C(=O)Nc3n[nH]c4cc(OCCOCc5ccc(C(F)(F)F)cc5)ccc34)cc2)CC1
- pKd [16]: > 9.00
- pKd [25]: > 9.00

Structure (SMILES): Cn1cc(-c2cc(Oc3ccc(NC(=O)N4CCC5(CCC5)C4=O)nc3)ccn2)cn1
- bioavailability [19]: 100%

Structure (SMILES): Cc1ccc(F)c(NC(=O)Nc2ccc(-c3cccc4[nH]nc(N)c34)cc2)c1 [LINIFANIB]
- pIC50 (NFS-60 [26]): 7.52
- IC50 at 48 h [27]: 8600 nM
- GI50 (NFS-60 [28]): 4400 nM

Structure (SMILES): Cc1cccc(Cn2nc(C3CC3)c3c(NC(=O)c4cnc5cc(OCCN6CCN(C)CC6)ccn45)cccc32)n1 [ARRY-382]
- ED50 (ID8): 3 mg/kg

Structure (SMILES): Cc1cc(NC(=O)c2cccc3cc(-c4cccc5[nH]nc(N)c45)ccc23)ccc1F
- pIC50 [29]: 7.03

The next lines start with results.

- half-life [7]: 2.53 h
- bioavailability [8]: 106%
Structure (SMILES): CNc1ccc(-c2cnc(Nc3cnc(C4CC4)nc3)cc2C)c2c1C(=O)NC2

- solubility [9]: 428 µM (≈ 257 µg/mL)
- fraction unbound [10]: 0.06
Structure (SMILES): COc1ccc(N2C(=O)N(c3c(C)cccc3Cl)Cc3cnc(Nc4ccc(C5CCN(C)CC5)cc4OC)nc32)nc1

- pIC50 [12]: 7.76
Structure (SMILES): COc1cc(OC)c(Cl)c(-c2ccc3c(NC(=O)c4ccc(N5CCNC(C)(C)C5)cc4)n[nH]c3n2)c1Cl

- pIC50 [13]: 6.72
- pIC50 [14]: 7.70
Structure (SMILES): CC1(C)CC=C(c2nc(C3CC(C)(C)OC(C)(C)C3)ccc2NC(=O)c2nc(C#N)c[nH]2)CC1 [EDICOTINIB]

- pKd [16]: > 7.00
Structure (SMILES): CCn1cc(OCC(F)(F)F)c(C(=O)Nc2ccc(Oc3ccnc4cc(OC)c(OC)cc34)cn2)n1
- TGI (EMT6): >50%

- pIC50 [17]: 7.63
- pIC50 [18]: 7.63
Structure (SMILES): Cn1cc(-c2cc(Cc3ccc(NC(=O)NC(=O)C(C)(C)C)nc3)ccn2)cn1

- bioavailability [19]: 100%
Structure (SMILES): Cn1cc(-c2cc(Oc3ccc(NC(=O)N4CCC5(CCC(F)(F)CC5)C4=O)nc3)ccn2)cn1

- pIC50 [20]: > 8.00
- pIC50 [21]: > 8.00
Structure (SMILES): CNC(=O)c1cccc2cc(Oc3ccnc(NC(=O)c4ccc(N5C[C@@H](C)N[C@@H](C)C5)cc4)c3)ccc12

- pIC50 (CT26): 9.00
Structure (SMILES): CNC(=O)c1cc(Oc2ccc3nc(N[C@@H]4CCCC[C@H]4O)sc3c2)ccn1 [SOTULETINIB]

- pIC50 [22]: 7.82
- pIC50 [23]: 7.82
- pIC50 [24]: 7.82
Structure (SMILES): O=C(Nc1ccc(OC(F)(F)F)cc1)c1sccc1NCc1ccnc2ccccc12 [OSI-930]

- pIC50 [29]: 8.39
Structure (SMILES): CCN(CC)CCNC(=O)c1c(C)[nH]c(/C=C2\C(=O)Nc3ccc(F)cc32)c1C [SUNITINIB]

- pIC50 [30]: 7.59
Structure (SMILES): COc1ncc(F)cc1CNc1ccc(Cc2c[nH]c3ncc(C)cc23)c(F)n1 [PLX-5622]
